The subject of experiment [1] is osteochondral defect in the medial femoral condyle. Nature of the experiment: Osteochondral defect repair, medial femoral condyle (ICRS macroscopic and modified O'Driscoll histology scoring). The experiment is classed as in vivo, sheep. The note with it: TGFβ (+); for median Macroscopic Score: 12-point scale; for median Histology Score: 24-point scale. How it is done: (§1) Osteochondral defect filling and regeneration: Skeletally mature female sheep were anesthetized and arthrotomy was performed bilaterally. One 3-4 mm deep and 7 mm diameter osteochondral defect was made in the medial femoral condyle of each stifle and one defect of the same dimensions in the femoral trochlear groove of each stifle. In one stifle, both defects were immediately filled with the PA/HA hybrid with 1 μg/mL TGFβ-1 preloaded as indicated. In the contralateral stifle, saline was immediately added to both defects, which was supplemented with TGFβ-1 at the same concentration as used in the material treated stifle. A calcium chloride solution was then dripped on top of each defect. […] allowed the sheep to stand on the hindlimbs. Samples of each sheep's synovial fluid was antiseptically drawn immediately prior to surgery and one week following surgery. After euthanasia, gross appearance of the defect areas was assessed the ICRS macroscopic scoring system (Ref. 59; incorporated by reference in its entirety) (Table 4). The samples were then fixed in formalin, decalcified the samples and prepared sections which were stained with H&E, with safranin O, or immunohistochemically for collagen II. Sections were scored using a modified O'Driscoll scoring system (Ref. 60; incorporated by reference in its entirety) (Table 5).
(§2) Preparation of material for surgical implant: Heat treated PA solutions prepared at 19 mM were combined with a 10 μg/mL TGFβ-1 solution (R&D Systems) dissolved in a 0.1% BSA, 4 mM HCl buffer or with the buffer alone at a 9:1 ratio. The combination was mixed by pipetting and kept on ice for 1 h. 900 μL of the mixed solution was added to 36 mg of crosslinked HA particles prepared under sterile conditions and allowed to hydrate for 1 h. The hybrid material was packed into a 1 mL syringe with a 19-gauge needle attached and kept on ice until use during surgery.
Animal study design: Animal work was performed at the University of Wisconsin, School of Veterinary Medicine, and all procedures were approved by the Institutional Animal Use and Care Committee. Thirty-six mature female sheep ranging in age from 2-7 (mean=3.7±1.7) years weighing between 60 and 100 (mean=74±8.3) kg were used in this study. Animals were divided into 6 groups: (1) 1 pilot sheep sacrificed at 1 week to assess material retention, (2) 6 sheep sacrificed at 4 weeks treated with PA and TGFβ-1, with 1 sheep sacrificed prior to 4 weeks due to patellar luxation and excluded from the analysis, (3) 6 sheep sacrificed at 4 weeks with PA, but without TGFβ-1 treatment, (4) 14 sheep sacrificed at 12 weeks with PA and TGFβ-1 treatment, with 4 sheep sacrificed prior to 12 weeks due to patellar luxation and excluded from analysis, (5) 6 sheep sacrificed at 12 weeks with PA but without TGFβ-1 treatment, with 2 sacrificed prior to 12 weeks due to patellar luxation and excluded from analysis, and (6) two sheep sacrificed at 24 weeks with PA and TGFβ-1 treatment.
Surgical technique: Prior to surgery the sheep were fasted for 24 h, and withheld water for 12 h. Sheep were administered a dose of Xylazine (0.1-0.22 mg/kg IM) in their pen to sedate them for transport to the surgical suite as well as a pre-operative dose of buprenorphine (0.0006-0.01 mg/kg IM) for analgesia. Sheep were then induced with ketamine-midazolam (2-10 mg/kg-0.1-0.3 mg/kg IM) and immediately intubated. Once intubated the sheep were maintained on isoflurane (0-4%) in 100% O2. At this time, a dose of Procaine Penicillin-G (10,000-20,000 IU/kg) IM was administered. Using aseptic techniques, a medial stifle arthrotomy was performed on both limbs of each sheep. In each stifle, one osteochondral defect was made in the medial femoral condyle and a second was made in the femoral trochlear groove using a Stryker EHD variable speed surgical drill and a cannulated drill bit. For the 24-week group, defects were made in the condyle only and not the trochlear groove. […]

For experiment [2], the system named is osteochondral defect in the femoral trochlear groove. Nature of the experiment: Osteochondral defect repair, femoral trochlear groove (ICRS macroscopic and modified O'Driscoll histology scoring). Type of experiment: in vivo, sheep. The note with it: Trochlea, TGFβ (+), control = TGFβ-1 in saline; for median Macroscopic Score: 12-point scale; for median Histology Score: 24-point scale. How it is done: as §1, §2
Animal study design: Animal work was performed at the University of Wisconsin, School of Veterinary Medicine, and all procedures were approved by the Institutional Animal Use and Care Committee. Thirty-six mature female sheep ranging in age from 2-7 (mean=3.7±1.7) years weighing between 60 and 100 (mean=74±8.3) kg were used in this study. […]

[3] abbreviates: 4 weeks, control = TGFβ-1 in saline.
[4] abbreviates: 12 weeks, control = TGFβ-1 in saline.

For the substance “Control: in TGFβ (+) groups: contralateral control defects filled with 1 μg/mL TGFβ-1 in saline solution”, the “median Macroscopic Score” value in experiment [1] (setting [3]) came out at 5; in experiment [1] (setting [4]), 7; in experiment [1] (24 weeks), 9; in experiment [2] (4 weeks) it was 5.7; in experiment [2] (12 weeks), 10.33. For the same substance, the “median Histology Score” value is 9.7 in experiment [1] (setting [3]); 10 in experiment [1] (setting [4]); 15.3 in experiment [1] (24 weeks); 10.3 in experiment [2] (4 weeks); 11 in experiment [2] (12 weeks).

For the origin of these results see US20240408279A1, “SUPRAMOLECULAR-COVALENT COMPOSITE SLURRY FOR CARTILAGE REPAIR” (Northwestern University, priority 2021, published 2024).
